# According to patent publication US20250060368A1, “METHODS OF DETECTING AND TREATING IMMUNOTHERAPY-RESISTANT CANCER” (Washington University, priority 2022, published 2025):
# How the values were obtained:
# [1] = tested on: B-ALL; experiment: Clinical case of B-ALL patient treated with blinatumomab and KTE-X19 (ZUMA-3); assay type: in vivo, human; conditions: person with B-ALL, CD19ΔTyr260
# Experimental: A person with B-ALL was treated with chemotherapy followed by 2 cycles of blinatumomab as initial therapy. […] B lymphoblasts. Using targeted RNA sequencing, an in-frame deletion within the extracellular domain of CD19 at […]) was identified (FIG. 6A).
# [2] = tested on: B-ALL; conditions: patients receiving blinatumomab or anti-CD19 CAR T for B-ALL; cited from earlier work
substance,measurement,setting,value
blinatumomab: CD19 bispecific T-cell engager approved for R/R B-ALL,Clinical response,[1],relapsed after the second cycle
same,Patients in whom emergence of CD19-negative clones is a cause of relapse,[2],10%-20%
